Entries after “also recorded” stand apart in the source; their conditions may differ.
Assays:
HLA-A*0201 = molecular target: T1, HLA-A*0201 (Homo sapiens, UniProt P04439, D140Y/D185E/D98H/E176V/E277Q/G131W/G231S/I119V/I121R/I166T/I218V/L300P/L318F/N151K/N90K/P208A/P217A/Q86G/Q94H/R138H/R169H/T345S); assay: Affinity of the peptide to T2 cell line (HLA-A*0201 binding, FACS with anti-HLA-A2 antibody); conditions: T2 cells
T1 construct: human tumoral cell T2 which expresses the HLA-A*0201 molecule; endogenous in cells; host or cells: T2 cells (human, TAP1/2 negative)
Protocol: T2 cells (5·10^4 cells per well) are incubated with decreasing concentrations of peptides from 100 μM to 0.1 μM (4 points: 100 μM, 10 μM, 1 μM, 0.1 μM) in serum-free medium (TexMacs) supplemented with 100 ng/μl of 2 Microglobulin at 37° C. for 16 hours.
The analysis is achieved by FACS (Macsquant analyzer 10 or a Macsquant analyzer 16-Miltenyi).

[1] = system: HHD DR1 HLA-A2 transgenic mice; assay: ELISPOT-IFNγ assay on splenocytes of vaccinated HLA-A2 transgenic mice; format: in vivo, mouse; conditions: for immunogenicity: T cell response in ELISPOT-IFNγ: 30 nmol peptide + UCP2 helper in Montanide ISA 51 VG s.c., prime d0, boost d14, spleen d21, restimulation 10 μM; for cross-reactivity of induced T cells with the corresponding human peptide in ELISPOT-IFNγ: prime d0, boost d14, spleen d21, challenge with human peptide 10 μM
Protocol: Briefly, HLA-A2 HHD-DR1 humanized mice (C57BL/6JB2mtm1UnclAb−/−Tg(HLA-DRA, HLA-DRB1*0101)#GjhTg(HLA-A/H2-D/B2M)1 Bpe) were assigned randomly (based on mouse sex and age) to experimental groups, wherein each group was immunized with a specific vaccination peptide (vacc-pAg) combined to a common helper peptide (h-pAg UCP2; sequence: […]; SEQ ID NO: 39) (as outlined in Table 6 below).
The peptide formulation to be injected (emulsion) was prepared freshly on each day of injection and for each group. A mix for 10 animals was prepared using 2 mL luer lock syringes (4606701 V, B BRAUN) and luer lock female-female Combifix® Adapter (B. Braun, 5206634): 500 μL of peptide mixture in syringe 1 was emulsified with 500 μL of Montanide ISA 51 VG (Seppic) contained in syringe 2. The emulsification process was performed first by pushing the peptide mixture contained in syringe 1 into syringe 2 (containing Montanide) at very low speed. Transfer of the mixture from one syringe to another was then performed at very low speed during 6 cycles (one cycle corresponding to one passage from one syringe to another), and secondly at high speed, as fast as possible, for 1 minute. Each emulsion was prepared in excess to compensate for the dead volumes at injection.
The animals were immunized on day 0 (d0) with a prime injection, and on d14 with a boost injection. Each mouse was injected s.c. on the loose skin over the neck of the animals with 100 μL of an oil-based emulsion that contained: • 30 nmol of vacc-pAg and 30 or 100 μg of UCP2 helper peptide in 50 μL of a dedicated final solvent • Montanide ISA 51 VG (Seppic) added at 1:1 (v:v) ratio (50 μL per mouse).
Seven days after the boost injection (i.e. on d21), the animals were euthanized and the spleen was harvested. Splenocytes were prepared by mechanical disruption of the organ followed by 70 μm-filtering and Red blood cell lysis.
The cell suspensions were further used in an ELISPOT-IFN assay (Table 5). The cells were cultured in 200 μL of complete T cell medium. Experimental conditions (duplicates) were as follow: 2×10^5 total cells per well when cultured in presence of various pAg (10 μM) or medium-only; and 2×10^4 total cells when cultured in presence of the positive control PMA/lonomycin (PMA: Sigma P8139: 0.1 μM final; lonomycin: Sigma 10634: 1 μM final). The cultures were assessed for their capacity to secrete IFN (mouse IFN-ELISpotPLUS kit, Mabtech 3321-4APT-10), following the manufacturer's instructions (˜12-48h incubation time before performing the assay). The peptides used for restimulation are described in Table 7.
Spots were counted on a an iSpot Fluorospot Reader System (AID). Data plotting and statistical analysis were performed with the Prism-9 software (GraphPad Software Inc.).
The data were provided as a number of spots per 1·10^6 total T cells. The individual average values (obtained from the duplicates) were next used to plot the group average values. Statistical analysis for comparison (to the irrelevant peptide condition) were performed using unpaired non-parametric test (Mann Whitney) (**: p<0.01; *: p<0.05).

Row | Concentration of peptide that induces 20% of HLA-A2 expression (HLA-A*0201) | Sequence | immunogenicity: T cell response in ELISPOT-IFNγ [1] | cross-reactivity of induced T cells with the corresponding human peptide in ELISPOT-IFNγ [1]
1 | 1.79 µM | ALIFGQLLL [TOP2A-B2] | induced significant T cell responses; also recorded: strongly immunogenic; also recorded: induced strong immune responses | able to drive an effective immune response against the corresponding human peptide; also recorded: Cross-reactivity
2 | 0.05 µM | ALYSEILTV [ANKRD30A-B1] | induced significant T cell responses; also recorded: strongly immunogenic; also recorded: induced strong immune responses | able to drive an effective immune response against the corresponding human peptide; also recorded: Cross-reactivity

Source: patent US20250205324A1, “ANTIGENIC PEPTIDES FOR PREVENTION AND TREATMENT OF CANCER” (ENTEROME S.A., priority 2022, published 2025)
